# Data published in patent US20250269046A1, “CELLULAR UPTAKE OF LARGE BIOMOLECULES ENABLED BY CELL-SURFACE-REACTIVE CELL-PENETRATING PEPTIDE ADDITIVES” (FORSCHUNGSVERBUND BERLIN E.V., priority 2021, published 2025).
# AEEA = NCCOCCOCC(=O)O
# Experiments:
# Assay type in all cases: cell-based
# HeLa CLL-2 cells = experiment: WST-1 cell viability assay; conditions: 10 μM
# Protocol: Absorbance at 440 nm is indicative of cellular metabolic activity in the processing of WST-1 to the absorbing Formazan. […] The cells were treated with either 5 μM NLS-mCherry-R10 II in DMEM alone (lower panel) or with 10 μM TNB-R10 5 in DMEM (upper panel). After one-hour incubation, cells were washed again in DMEM and treated with 5 μM Calcein AM in DMEM. The morphology of the cells as shown in the differential interference contrast (DIC) images is also unaffected. Scale bars 50 μm. c, Co-delivery of NLS-mCherry-R10 II in presence of Sytox Blue dead cell stain with or without added TNB-R10 5. Scale bars 20 μm.
# [1] = system: HeLa Kyoto cells transfected with EGFP-transmembrane-Halotag plasmid; experiment: Halotag-tethering of CPP and delivery of NLS-mCherry-cR10 I; conditions: 5 μM NLS-mCherry-cR10 I, 20 μM Halo-R10, 1 hour 37° C.
# Protocol: The arrowheads indicate nucleation zones stained by both peptides. b, Time-lapse of the co-delivery of NLS-mCherry-R10 II together with the Maleimide-R10-Cy5 peptide 13 on HeLa Kyoto cells in cell medium. The arrowheads indicate nucleation zones and blue arrowheads the appearance of nucleolar staining of the mCherry. c, Cellular uptake of NLS-mCherry-cR10 I in presence of chloroalkane-modified “Halo-R10” 17 on HeLa Kyoto cells transfected with EGFP-transmembrane-Halotag plasmid, 1 hour at 37° C. in cell medium. SP: Signal peptide, TM: transmembrane sequence. […] Uptake experiments with peptides 16 and 18-20 in FIG. 26. Scale bars 20 μm.
# Transfected cells were treated with 1 μM JF646-Halotag-Iigand (Promega). […] The arrowheads show nucleoli with mCherry fluorescence. See also main text FIG. 3. Scale bars 20 μm.
# To elaborate this further, the inventors generated a plasmid that would lead to expression of an EGFP reporter inside transfected cells along with a Halotag (England, C. G., Luo, H. & Cai, W. HaloTag technology: a versatile platform for biomedical applications. Bioconjug Chem 26, 975-986, doi:10.1021/acs.bioconjchem.5b00191 (2015)) on the cell surface (simplified plasmid map in FIG. 3c, validation of the plasmid and additional controls in FIG. 28). […]
# HeLa Kyoto cells [2] = experiment: Quantitative microscopy of nuclear mCherry fluorescence after co-delivery with R10-peptides; conditions: 5 μM mCherry-R10 conjugate II with additive
# Protocol: To further evaluate the high efficiency of the CPP-peptide additives 1 and 2 in the additive protocol and to probe the impact of the N-terminal thiol functionality, the inventors synthesized additional linear CPPs 3-5 with different thiol derivatives (FIG. 2a). We then co-delivered 5 μM of CPP-conjugates of mCherry either linked to a linear (11) or cyclic R10 (1) (as above in FIG. 1 d-e) together with the newly synthesized peptides 1-5 into HeLa Kyoto cells and used microscopy to measure both nuclear and total fluorescence (representative pictures for all tested conditions in FIG. 12). Thereby, the inventors quantified the desirable delivery to the nucleus and nucleoli (FIG. 2a), and also the amount of unwanted endosomal entrapment (FIG. 13, see example 6 with supporting methods and general methods for details).
# Cell culturing is described in the supplementary methods, along with a list of cell lines used in this study. For microscopy experiments, 20′000 cells (10′000 in the case of the GFP-PCNA HeLa Kyoto cell line^7) were seeded into the wells of a 96-well glass bottom plate. The cells were left to adhere and grow for 24 hours at 37° C. with 5% CO2. For 37° C. experiments, the cells were washed once with DMEM before addition of the protein samples in DMEM. The cells were incubated for 1 hour at 37° C. The cells were then washed three times with DMEM with 10% fetal bovine serum (FBS). […] For the quantitative microscopy experiments, the cells were fixed using 4% PFA in PBS for 30 minutes at room temperature after washing.
# Quantification of cellular uptake was done using a script for FIJI, see section “Quantification Script”. […] The red fluorescence channel was background subtracted and the red fluorescence within the nuclear mask and outside of it was quantified. Nuclear fluorescence was either normalized to the nuclear area (absolute fluorescence graph in FIG. 2) or to the sum of nuclear and outside fluorescence (relative fluorescence graph in SI FIG. 6). Pearson's correlation coefficient was calculated using the Coloc2 tool in Fiji.
# HeLa CCL-2 cells = experiment: Cre Stoplight 2.4 reporter, delivery of Cre-exR8, flow cytometry and microscopy
# Description: To challenge the delivery protocol, the inventors expressed and purified Cre recombinase fused to a C-terminal R8 peptide (Cre-exR8, characterization in FIG. 39). Fusions of Cre recombinase with the arginine-rich HIV TAT peptide have been previously reported to aid in cell uptake (Peitz, M., Pfannkuche, K., Rajewsky, K. & Edenhofer, F. Ability of the hydrophobic FGF and basic TAT peptides to promote cellular uptake of recombinant Cre recombinase: a tool for efficient genetic engineering of mammalian genomes. Proc Natl Acad Sci USA 99, 4489-4494, doi:10.1073/pnas.032068699 (2002)).
# For the Cre recombinase experiments, 200′000 cells were seeded in each well of a 12-well plate. The cells were incubated for 24 hours at 37° C. to settle, then transfected with the reporter plasmid (Cre Stoplight 2.4) using Lipofectamine 2000. The cells were incubated for another 24 hours, then treated with Cre recombinase (or medium) in DMEM with 5% FCS and incubated for 24 more hours. Microscopy pictures were then taken, and the cells were detached with accutase, dead cells stained with DAPI and all cells measured on a LSRFortessa (BD Biosciences, USA) flow cytometer. […] At least 10′000 cells were counted for each condition. The gating strategy is illustrated in FIG. 41.
# cells [3] = experiment: Uptake of NLS-mCherry-R10 II with additional CPP in presence of serum; conditions: for co-delivery efficiency in presence of serum: 37° C.
# Protocol: Scale bars 20 μm. b, Quantification of relative nuclear fluorescence intensities from microscopy pictures. n.s.=not significant, ***=P<0.0005.
# Methods of cargo delivery that rely on endosomal escape are often susceptible to the presence of serum, as they require effective endocytosis of both the cargo and the endosomolytic agent (Erazo-Oliveras, A. et al. Protein delivery into live cells by incubation with an endosomolytic agent. Nat Methods 11, 861-867, doi:10.1038/nmeth.2998 (2014)). The inventors hypothesized that peptide 5 would likely react with thiols in the serum, but the co-delivery with 2 (Cys-R10) should still function. […] Reduction in efficiency in presence of large amounts of serum may be due to the thiols in serum or the unspecific binding of CPPs to serum proteins (Lattig-Tunnemann, G. et al. Backbone rigidity and static presentation of guanidinium groups increases cellular uptake of arginine-rich cell-penetrating peptides. Nat Commun 2, 453, doi:10.1038/ncomms1459 (2011)).
# HeLa Kyoto cells [4] = experiment: Cellular uptake of CPP-bearing cargoes with or without unbound CPP additive, confocal microscopy
# Description: To evaluate the concentration, temperature and cargo-size dependency of added arginine-rich peptides to mediate cytosolic delivery, the inventors chose three distinct cargoes to transport: the organic fluorophore Tetramethylrhodamine (TAMRA, ˜450 Da), the camelid-derived anti-GFP nanobody GBP1 (˜14 kDa) and the fluorescent protein mCherry with a nuclear localization signal (NLS-mCherry, ˜28 kDa). […] We then applied all of the synthesized cargoes to HeLa Kyoto cells (expressing nuclear GFP-PCNA (Leonhardt, H. et al. Dynamics of DNA replication factories in living cells. J Cell Biol 149, 271-280, doi:10.1083/jcb.149.2.271 (2000). Chagin, V. O. et al. 4D Visualization of replication foci in mammalian cells corresponding to individual replicons. Nat Commun 7, 11231, doi:10.1038/ncomms11231 (2016)) as antigen for the nanobody), at both 37 and 4° C.
# For microscopy experiments, 20′000 cells (10′000 in the case of the GFP-PCNA HeLa Kyoto cell line^7) were seeded into the wells of a 96-well glass bottom plate. The cells were left to adhere and grow for 24 hours at 37° C. with 5% CO2. For 37° C. experiments, the cells were washed once with DMEM before addition of the protein samples in DMEM. The cells were incubated for 1 hour at 37° C. The cells were then washed three times with DMEM with 10% fetal bovine serum (FBS). Cells were generally imaged live with incubation at 37° C. and 5% CO2. For the quantitative microscopy experiments, the cells were fixed using 4% PFA in PBS for 30 minutes at room temperature after washing.
# For 4° C. experiments, the cells were pre-chilled at 4° C. for 1 hour. The cells were then washed with cold DMEM and the proteins were added in cold DMEM to the cells. The cells were incubated at 4° C. for 1 hour. Afterwards, the cells were washed thrice with cold DMEM with 10% FBS, before fixation with 4% PFA in PBS for 30 minutes at room temperature.
# Confocal microscopy images were acquired on a Nikon-CSU spinning disc microscope with an CSU—X1 (Andor) and a live cell incubation chamber (OKOlab).
# cells [5] = experiment: Uptake of NLS-mCherry-R10 and Alexa647-Transferrin with endocytosis inhibitors; conditions: NLS-mCherry-R10 II 5 μM, additive 5 μM, 37° C.; sodium azide, dynasore, pitstop 2
# Protocol: NLS-mCherry-R10 II at a 5 μM concentration was added to cells in combination with 25 μg/mL Alexa647-Transferrin (Invitrogen) as endocytosis control. Where indicated, 5 μM of the Cys-R10 peptide 2 were added to induce nucleolar delivery of the mCherry.
# [6] = system: accessible cell-surface thiols; experiment: Fluorescent labelling of accessible cell-surface thiols; conditions: 50 μM for 10 minutes, then 10 μM atto 488 maleimide
# Description: Next, the inventors wanted to explore other cysteine-selective reactions in this context. […] The inventors first wanted to confirm that there are addressable, surface-exposed thiols on cells. To that end, the inventors labelled cells with a cell-impermeable, maleimide-functionalized fluorophore (FIG. 20).
compound,measurement,setting,value
CN[C@@H]1C[C@H]2O[C@@](C)([C@@H]1OC)n1c3ccccc3c3c4c(c5c6ccccc6n2c5c31)C(=O)NC4 [staurosporine],effect on cellular metabolic activity (positive control),HeLa CLL-2 cells,"significant, detrimental effect"
6-chlorohexanoic acid-PEG*-RRRRRRRRRR-Amide ({6‑chlorohexanoyl-AEEA-AEEA}-RRRRRRRRRR-NH2) [compound 17],nucleolar mCherry staining in transfected cells,[1],mCherry in the nucleoli of EGFP-positive cells
N=C(N)NCCC[C@H](NC(=O)[C@H](CCCNC(=N)N)NC(=O)[C@H](CCCNC(=N)N)NC(=O)[C@H](CCCNC(=N)N)NC(=O)[C@H](CCCNC(=N)N)NC(=O)[C@H](CCCNC(=N)N)NC(=O)[C@H](CCCNC(=N)N)NC(=O)[C@H](CCCNC(=N)N)NC(=O)[C@H](CCCNC(=N)N)NC(=O)[C@H](CCCNC(=N)N)NC(=O)COCCOCCNC(=O)COCCOCCNC(=O)[C@@H](N)CS)C(N)=O [peptide 2],staining after co-delivery,HeLa Kyoto cells [2],nuclear/nucleolar staining
same,expression of the Cre reporter,"HeLa CCL-2 cells; 1 μM Cre-exR8 with 10 μM peptide vs alone, 5% serum",strong increase in expression of the Cre reporter
same,"red fluorescence, epifluorescence microscopy",HeLa CCL-2 cells; Cre-exR8 in presence of additional peptide,higher incidence of red fluorescence
same,co-delivery efficiency in presence of serum,cells [3]; 5% serum or lower,negligible effect on uptake
same,co-delivery efficiency in presence of serum,cells [3]; 10% serum,reduced efficiency
same,performance in presence of serum compared with alkylated variant,"cells [3]; NLS-mCherry-R10 II, serum",performed significantly better than the alkylated variant 3
same,cells with nucleolar red fluorescence,HeLa Kyoto cells [4]; 5 μM NLS-mCherry-R10 II with the CPP-additive,more than 90%
same,nucleolar delivery of NLS-mCherry linked to linear R10 with linear CPP-additive,"HeLa Kyoto cells [4]; 5 μM additive, 5 μM NLS-mCherry-R10",efficient nucleolar delivery
same,nucleolar mCherry in presence of endocytosis inhibitors,cells [5],could detect nucleolar mCherry regardless of the inhibitor used
"O=C(O)c1cc(SSc2ccc([N+](=O)[O-])c(C(=O)O)c2)ccc1[N+](=O)[O-] [Ellman's reagent, 5,5′-dithiobis-(2-nitrobenzoic acid)]",labelling of cell-surface thiols by maleimide fluorophore after pre-treatment,[6],Labelling is dramatically reduced
